Reference: BigSolDB 2.1

COc1cc([N+](=O)[O-])c(OC)cc1Cl
Details	solubility (mole fraction)
in ethanol, 276.95 K	0.00042
in ethanol, 281.05 K	0.000522
in ethanol, 285.25 K	0.000644
in ethanol, 288.25 K	0.000757
in ethanol, 291.45 K	0.000892
in ethanol, 295.75 K	0.00109
in ethanol, 300.15 K	0.00135
in ethanol, 305.55 K	0.00172
in ethanol, 310.45 K	0.00219
in ethanol, 314.85 K	0.00274
in ethanol, 319.65 K	0.0034
in ethanol, 323.65 K	0.00409
in ethanol, 327.25 K	0.0048
in ethanol, 330.25 K	0.00558
in ethanol, 333.35 K	0.00649
in ethanol, 336.65 K	0.00764
in ethanol, 340.45 K	0.00921
in m-xylene, 277.05 K	0.00728
in m-xylene, 279.95 K	0.00788
in m-xylene, 283.15 K	0.00872
in m-xylene, 286.15 K	0.00994
in m-xylene, 290.05 K	0.0118
in m-xylene, 295.35 K	0.0146
in m-xylene, 300.75 K	0.0178
in m-xylene, 305.05 K	0.0209
in m-xylene, 308.85 K	0.024
in m-xylene, 312.15 K	0.0272
in m-xylene, 315.45 K	0.0305
in m-xylene, 318.55 K	0.0341
in m-xylene, 321.75 K	0.0382
in m-xylene, 325.05 K	0.0432
in m-xylene, 328.45 K	0.049
in m-xylene, 332.05 K	0.0561
in m-xylene, 335.35 K	0.0645
in m-xylene, 338.95 K	0.0747
in methanol, 279.35 K	0.000449
in methanol, 282.75 K	0.000517
in methanol, 285.55 K	0.000598
in methanol, 288.85 K	0.000716
in methanol, 293.45 K	0.000895
in methanol, 297.55 K	0.00109
in methanol, 301.75 K	0.00131
in methanol, 305.85 K	0.00156
in methanol, 309.55 K	0.00187
in methanol, 313.25 K	0.00223
in methanol, 316.85 K	0.00266
in methanol, 320.75 K	0.00318
in methanol, 324.85 K	0.00383
in methanol, 329.05 K	0.00464
in o-xylene, 277.75 K	0.00864
in o-xylene, 280.45 K	0.00956
in o-xylene, 283.55 K	0.0107
in o-xylene, 287.05 K	0.0123
in o-xylene, 291.45 K	0.0145
in o-xylene, 296.25 K	0.0174
in o-xylene, 301.25 K	0.0209
in o-xylene, 305.65 K	0.0245
in o-xylene, 309.45 K	0.0283
in o-xylene, 313.25 K	0.0323
in o-xylene, 316.85 K	0.0367
in o-xylene, 320.55 K	0.0418
in o-xylene, 323.95 K	0.0476
in o-xylene, 327.55 K	0.0544
in o-xylene, 331.35 K	0.0624
in o-xylene, 335.25 K	0.0719
in o-xylene, 339.35 K	0.0831
in p-xylene, 289.55 K	0.0126
in p-xylene, 293.65 K	0.0145
in p-xylene, 297.55 K	0.0168
in p-xylene, 301.95 K	0.0198
in p-xylene, 306.15 K	0.023
in p-xylene, 310.25 K	0.0266
in p-xylene, 313.85 K	0.0304
in p-xylene, 317.55 K	0.0347
in p-xylene, 321.15 K	0.0396
in p-xylene, 324.65 K	0.0454
in p-xylene, 328.45 K	0.0522
in p-xylene, 332.35 K	0.0604
in p-xylene, 336.65 K	0.07
in toluene, 277.45 K	0.00969
in toluene, 280.55 K	0.0107
in toluene, 283.85 K	0.0122
in toluene, 287.85 K	0.0145
in toluene, 293.05 K	0.0178
in toluene, 297.95 K	0.0211
in toluene, 301.85 K	0.0241
in toluene, 305.35 K	0.0273
in toluene, 308.75 K	0.0308
in toluene, 312.35 K	0.0347
in toluene, 315.85 K	0.0393
in toluene, 319.45 K	0.045
in toluene, 323.45 K	0.052
in toluene, 327.75 K	0.061
in toluene, 332.75 K	0.0726
in toluene, 337.35 K	0.0852
